pIC50: −log10 of the molar value. Entries after “also recorded” stand apart in the source; their conditions may differ. Where two headings read alike, the source gives them in different places.
Assays:
[1] = test system: AD model mouse; experiment: In vivo study of C41 and F03 in an AD model mouse
Description: Panel A: Novel object preference; Panel B: Novel location preference; Panel C: sAPPα.
Panel A: sAPPβ; Panel B: the sAPPα/sAPPβ ratio.
Compounds meeting the initial screening criteria were then subjected to in vivo testing.

[2] = test system: B254 mice; experiment: C41 lead confirmation in B254 mice; assay type: in vivo; conditions: 4 weeks oral 4 mkd
Description: FIG. 15 illustrates the result of C41 lead confirmation in B254 mice. Panel A: Novel Location Recognition; Panel B: Novel Object Recognition; Panel C: sAPPα; Panel D: Aβ40; Panel E: Aβ42; Panel F: p-tau/tau.

[3] = test system: sAPPα, Aβ1-42 in CHO-7W cells; experiment: Secondary screen, sAPPα and Aβ in CHO-7W cells; assay type: cell-based
Description: Compound C41 was initially identified by screening a library of compounds in a series of steps. First compounds were screened in a primary screen to determine the effect on sAPPα in SH-SYSY cells (see, e.g., FIG. 4). Compounds that elicited an increase in sAPPα of at least 10% were subjected to a secondary screen in CHO-7W cells for their effect on sAPPα and Aβ (see, e.g., FIG. 5).

[4] = in vivo; conditions: rat
Protocol: Top panel: Levels after oral delivery at 10 mk at 1, 8, and 24 hours; levels after oral delivery at 40 mk at 24 hours only. Bottom panel: IV delivery at 2.5 mk. Note brain levels in ng/g, plasma levels in ng/ml.
FIG. 13 illustrates C41 pharmacokinetic parameters in rat.
C41 pharmacokinetics were determined in a rat (see, FIG. 12, Table 9). […] Brain tissue was collected at 1, 8, and 24 hours. Plasma peak was 150 ng/ml and brain was 3251 ng/g. C41 peaked at 8 hours. […] Brain tissue was collected at 30 min, 6 hours, and 24 hours. Plasma peak was 564 ng/ml, at 1 minute and brain peak was 629 ng/g at 30 minutes. The 30 minute brain:plasma ratio was 8. Oral availability was determined to be about 100% (see, e.g. FIG. 13).

[5] = target: α7 (Homo sapiens, UniProt P36544); experiment: Target binding α7
α7, sequence (P36544 23-502): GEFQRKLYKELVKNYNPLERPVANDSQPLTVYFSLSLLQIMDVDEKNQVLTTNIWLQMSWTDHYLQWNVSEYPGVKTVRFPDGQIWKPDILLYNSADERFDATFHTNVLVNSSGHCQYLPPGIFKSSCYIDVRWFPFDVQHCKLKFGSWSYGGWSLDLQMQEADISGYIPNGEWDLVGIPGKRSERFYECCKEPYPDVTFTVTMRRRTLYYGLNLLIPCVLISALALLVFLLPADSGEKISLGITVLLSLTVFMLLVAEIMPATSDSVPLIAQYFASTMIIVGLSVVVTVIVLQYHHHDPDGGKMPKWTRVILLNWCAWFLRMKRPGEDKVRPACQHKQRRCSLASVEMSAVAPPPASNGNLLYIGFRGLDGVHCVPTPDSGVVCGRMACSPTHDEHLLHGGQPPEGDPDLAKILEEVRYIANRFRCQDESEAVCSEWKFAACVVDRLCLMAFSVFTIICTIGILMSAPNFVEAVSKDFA

[6] = target: CYP2C9 (Homo sapiens, UniProt P11712); experiment: CYP inhibition screen CYP2C9; assay type: in vitro ADME
CYP2C9, sequence (P11712 whole entry): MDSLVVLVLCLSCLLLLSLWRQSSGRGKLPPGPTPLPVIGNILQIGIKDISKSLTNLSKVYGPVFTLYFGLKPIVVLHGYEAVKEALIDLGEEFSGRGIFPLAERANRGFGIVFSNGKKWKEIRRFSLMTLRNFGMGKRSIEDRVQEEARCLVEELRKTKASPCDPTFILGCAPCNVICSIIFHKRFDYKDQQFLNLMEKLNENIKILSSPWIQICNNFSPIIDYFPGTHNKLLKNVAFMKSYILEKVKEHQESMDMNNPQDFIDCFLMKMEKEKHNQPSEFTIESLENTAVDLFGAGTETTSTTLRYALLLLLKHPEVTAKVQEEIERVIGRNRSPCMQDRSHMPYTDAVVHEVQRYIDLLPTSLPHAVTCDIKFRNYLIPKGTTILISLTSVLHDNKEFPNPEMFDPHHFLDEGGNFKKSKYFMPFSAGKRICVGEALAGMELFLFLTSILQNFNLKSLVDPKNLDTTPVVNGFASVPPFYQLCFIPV

[7] = Acute non-GLP toxicity study, oral 450 mg/kg; assay type: in vivo, rats; conditions: for concentration at 24 h: rat, in vivo
Protocol: Acute non-GLP toxicity study was performed using an oral dose of 450 mg/kg. At 24 hours post-dosing, brain levels were 2924 ng/g and plasma levels were 115 ng/ml.

[8] = target: CYP3A4 (Homo sapiens, UniProt P08684); experiment: CYP inhibition screen CYP3A4; assay type: in vitro ADME; conditions: for inhibition at 10 µM / inhibition at 30 µM: human
CYP3A4, sequence (P08684 whole entry): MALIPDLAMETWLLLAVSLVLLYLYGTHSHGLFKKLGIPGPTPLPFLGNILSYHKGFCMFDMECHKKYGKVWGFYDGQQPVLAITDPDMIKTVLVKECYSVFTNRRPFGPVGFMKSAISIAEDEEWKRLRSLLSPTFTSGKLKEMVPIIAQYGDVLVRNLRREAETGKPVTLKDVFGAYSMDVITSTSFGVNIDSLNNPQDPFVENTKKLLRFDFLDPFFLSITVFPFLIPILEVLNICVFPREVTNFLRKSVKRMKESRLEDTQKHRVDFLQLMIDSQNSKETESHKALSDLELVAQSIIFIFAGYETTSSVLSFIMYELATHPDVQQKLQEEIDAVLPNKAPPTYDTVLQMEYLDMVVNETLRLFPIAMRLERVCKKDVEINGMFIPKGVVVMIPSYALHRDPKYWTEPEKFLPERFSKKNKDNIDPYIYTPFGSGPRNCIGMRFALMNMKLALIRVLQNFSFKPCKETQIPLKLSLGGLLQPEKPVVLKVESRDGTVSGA

[9] = S9 stability, dog; assay type: in vitro ADME
[10] = S9 stability, mouse; assay type: in vitro ADME
[11] = test system: muscarinic acetylcholine receptors; experiment: Muscarinic receptor binding in panel; conditions: panel binding test

## CN1[C@@H]2CC[C@H]1C[C@@H](OC(=O)c1c[nH]c3cc(F)ccc13)C2 [Compound C41, (1R,3R,5S)-8-methyl-8-azabicyclo[3.2.1]octan-3-yl 6-fluoro-1H-indole-3-carboxylate]
[1]
  Aβ1-42 levels in vivo: did not change
  Aβ40/42 ratio in vivo: not changed
  sAPPα in vivo: increased significantly
  sAPPα/Aβ1-42 ratio in vivo: not increased
  sAPPα/sAPPβ ratio in vivo: significantly greater increase with C41 than F03
  sAPPβ in vivo: greater decrease in sAPPβ than F03
  short-term working object memory (novel object preference): approximately 85 % of NTg level
  spatial memory, novel location recognition test: improved spatial memory
[2]
  Aβ40: trend for Aβ40 and 42 to decrease
  Aβ42: trend for Aβ40 and 42 to decrease
  novel location recognition: some improvement
  novel object recognition: significant improvement
  p-Tau/Tau ratio: significantly decreased
[3]; ↑ increase
  Secondary Screen (CHO-7W) sAPPα: ↑>20%
[3]; ↑ increase of ratio
  Secondary Screen (CHO-7W) sAppα/Aβ: ↑>50%
[3]; ↓ decrease
  Secondary Screen (CHO-7W) Aβ1-42: ↓>20%
[4]
  Oral availability: about 100%
  bioavailability: ~98%
[4]; iv
  AUC (0-t): AUC (0-t) ng-min/g = 400605.0
  AUC(0-t): 330 ng·h/mL
  Clearance (CL): Clearance (CL) g/min/Kg = 0.006.
  Kp at 0.5 h: 8
  Volume of distribution steady state: g/Kg = 2.9.
  clearance: 112 mL/min/kg
[4]; iv, 2.5 mg/kg
  AUC: 373 ng·h/mL
[4]; iv, 2.5 mg/kg, MRT
  MRT: 6.63 h
[4]; iv, Cmax
  Cmax: 629 ng/g
[4]; iv, Cmax plasma
  Cmax: 564 ng/mL
[4]; iv, Mean residence time (MRT)
  MRT: 6.64 h
[4]; iv, Mean residence time (MRT) area
  MRT: 8.33 h
[4]; po
  AUC (0-t): AUC (0-t) ng-min/g = 793672.5
  AUC(0-t): 1970 ng·h/mL
  Clearance (CL): Clearance (CL) g/min/Kg = 0.087.
  T1/2 elimination: T1/2 elimination = 154.022 min.
  clearance: 84 mL/min/kg
  time of peak: 8 h
[4]; po, 10 mg/kg
  AUC: 1970 ng·h/mL
[4]; po, 10 mg/kg, MRT
  MRT: 21.7 h
[4]; po, Cmax
  Cmax: 3250 ng/g
[4]; po, Cmax plasma
  Cmax: 150 ng/mL
[4]; po, T1/2 elimination
  half-life: 2.41 h
[4]; po, Tmax
  Tmax: 6.33 h
[4]; po, Tmax oral
  Tmax: 8 h
[5]
  Target α7: 1100 nM
[6]
  pIC50: < 4.52
[6]; human
  inhibition at 10 µM: 11.4%
  inhibition at 30 µM: 21.6%
[7]; oral 450 mg/kg, likely due to the corn syrup vehicle
  acute toxicity finding: some dilation of the vessels on the surface of the intestine
[7]; po, 450 mg/kg
  concentration at 24 h: 115 ng/mL
[7]; oral 450 mg/kg, 24 hours post-dosing, read-out: brain levels
  concentration at 24 h: 2920 ng/g
[8]
  pIC50: < 4.52
[8]; CYP3A4 midazolam inhibition
  inhibition at 10 µM: 3.1%
  inhibition at 30 µM: 3.8%
[8]; CYP3A4 testosterone inhibition
  inhibition at 10 µM: 5.2%
  inhibition at 30 µM: 2.5%
[9]
  half-life: 0.668 h
[10]
  Metabolic Half-Life Mouse S9: >1 h
  half-life: > 1 h
[11]
  binding to muscarinic acetylcholine receptors: only weak binding; also recorded: profile. Some
